From patent US12303511B2 (priority 2018, dated 2025)

Legend:
Gpr139−/− mice [1] = test: Conditioned place preference paradigm; type: in vivo; conditions: Gpr139−/− mice vs wild-type
[2] = system: transgenic C. elegans (tgMOR) that express mammalian MOR; conditions: in vivo
Gpr139−/− mice [3] = conditions: Gpr139−/− mice vs wild-type, multiple drug doses

CN1CC[C@]23c4c5ccc(O)c4O[C@H]2[C@@H](O)C=C[C@H]3[C@H]1C5 [morphine]
rewarding effects (Gpr139−/− mice [1]): substantially augmented responses
time to maximum paralysis and recovery [2]: reached maximum paralysis and recovered more quickly
analgesia, maximal response and duration of effect (Gpr139−/− mice [3]): significantly increased morphine analgesia
